# Results taken from patent US20180140609A1, “USE OF (4-HYDROXY-2-METHYL-1,1-DIOXIDO-2H-BENZO[E][1,2]THIAZINE-3-YL)(NAPHTHALENE-2-YL) METHANONE IN THE PREVENTION AND/OR TREATMENT OF NON-ALCOHOLIC STEATOHEPATITIS” (PIERRE FABRE MEDICAMENT, priority 2015, published 2018).
# Where two headings read alike, the source gives them in different places.
# What was measured:
# Type in all cases: in vivo
# [1] = Plasma exposure in cynomolgus monkeys (prednisone challenge studies, LC-MS/MS); conditions: same dose of 20 mg/kg
# Protocol: (§1) Briefly, the study is carried out in naive adult male cynomolgus monkeys fasted overnight. The 11β-HSD type 1 inhibitor or its vehicle (0.5% methylcellulose in water) is administered via nasogastric intubation. Two hours later, a challenge with orally administered prednisone (10 mg/kg) is performed and blood samples are taken regularly for 24 hours. These samples are centrifuged to obtain plasma and immediately frozen at −70° C. until bioanalysis. Plasma levels of prednisone, prednisolone and 11β-HSD type 1 inhibitors are measured by LC-MS/MS analytical methods.
# (§2) The study is carried out over a period of 10 weeks. Profiles of plasma concentration as a function of time and areas under the curve are calculated using the trapezoidal method for all parameters.
# [2] = Plasma level by LC/MS after single oral administration in C57BL/6N mice; conditions: parent molecule by LC/MS
# Protocol: (§3) The evaluation is made in on 4- to 6-week-old non-fasted male C57BL/6N strain mice. The compounds to be tested or the vehicle (0.5% methylcellulose in water, at 10 ml/kg) are administered orally; n=3 mice per treatment.
# (§4) Blood samples are collected 1 h and 4 h after administration; the tubes are centrifuged to obtain plasma and frozen at −70° C. until bioanalysis. Plasma bioactivity (2% final volume) is analyzed by using the inhibition of human 11β-HSD type 1 as a detection system (SPA technology) for each compound at each dose tested. Percent inhibition (versus mice treated with carrier) is calculated for each dose.
# Compound 1 is detected in the plasma of the treated mice and inhibits 11β-HSD type 1 as of 0.63 mg/kg. LC/MS analyses of plasma samples from the animals treated with Compound 1K show a much higher plasma level of the parent molecule than that found for Compound 1.
# 11β-HSD type 1 = assay: Inhibition of conversion of prednisone to prednisolone after single administration to cynomolgus monkeys
# Protocol: The protocol used is described by Bhat et al. (J. Pharmacol. Exp. Ther. 324, 299-305, 2008).
# as §1, §2
# The effect of Compound 1 is evaluated at three doses: 1.25, 5 and 20 mg/kg.
# The effect of Compound 1K is evaluated at three doses: 20, 40 and 80 mg/kg. The protocol is quite similar to the preceding, except that only 5 blood samples were taken per monkey rather than 7. Compound 1K was also evaluated over a period of 10 weeks.
# The 11β-HSD type 1 activity-dependent conversion of prednisone to prednisolone was evaluated. Compound 2K inhibits roughly 50% this activity at a dose of 20 mg/kg (FIG. 2A). FIG. 2 represents the effects of Compound 2K, at the three doses tested, on plasma prednisolone/prednisone ratio calculated with the area under the curve between 30 minutes and 4 hours (panel A) and on plasma exposure during the 6-hour experimental period (panel B); the results obtained with Compound 1K at a dose of 5 mg/kg are compared in the two panels.
# human 11β-HSD type 1 [3] = biological target: T1, human 11β-HSD type 1 (Homo sapiens, UniProt P28845); assay: Plasma bioactivity after single oral administration in C57BL/6N mice, read as inhibition of human 11β-HSD type 1 (SPA); conditions: for inhibition at 2.5 mg/kg / inhibition at 10 mg/kg: po, mice, table with plasma levels; for inhibition at 2.5 mg/kg: 2.5 mg/kg oral; for inhibition at 10 mg/kg: 10 mg/kg oral
# Protocol: as §3, §4
# [4] = Plasma and tissue levels after single oral administration in cynomolgus monkeys (LC-MS/MS); conditions: male, cynomolgus monkey, 20 mg/kg oral
# Protocol: (§5) Five adult male cynomolgus monkeys (same animals used in studies 1 and 2 of Example 4) are fasted the evening before the experiment. Blood samples are taken right before administration of Compound 1K (dose of 20 mg/kg, n=3) or administration of the vehicle (0.5% methylcellulose in water, n=2) then 4 hours after oral administration. The animals are euthanized, necropsy is performed on the monkeys, samples of plasma and of target tissues are taken and then frozen in liquid nitrogen and stored at −70° C. until ex vivo analyses. To test the ex vivo activity of 11β-HSD type 1, 5-10 mg liver samples were incubated in duplicate for 30 minutes at 37° C. with 17 nM [1,2-^3H] cortisone in 50 mM HEPES (pH 7.4), 100 mM KCl, 5 mM NaCl, 2 mM MgCl2. Plasma levels were measured by the LC-MS/MS analytical method. The liver samples were homogenized by sonication and extracted with acetonitrile (1 ml of distilled water, 4 ml of acetonitrile for 200 mg of tissue). Tissue levels of the compounds were measured by the LC-MS/MS analytical method.
# (§6) The protocol is the same as that described in Example 5, except that the tissue samples are from mesenteric, subcutaneous and inguinal adipose tissue.
# [5] = tested on: 11β-HSD type 1 of adipose tissue; assay: Ex vivo activity of 11β-HSD type 1 of adipose tissue after single oral administration to cynomolgus monkeys; conditions: 20 mg/kg single oral, 4 hours, mesenteric and subcutaneous adipose tissue
# Protocol: as §5, §6
# human 11β-HSD type 1 [6] = biological target: T1, human 11β-HSD type 1; assay: Bioactivity of inguinal white adipose tissue after single oral administration in C57BL/6N mice, read as inhibition of human 11β-HSD type 1 (SPA); conditions: mouse inguinal white adipose tissue extract
# Protocol: Four hours post-administration, the mice are euthanized and inguinal white adipose tissue is taken and frozen at −70° C. until the day of bioanalyses. The white adipose tissue is homogenized in liquid nitrogen and then treated with acetonitrile (1 ml of distilled water for 4 ml of acetonitrile and 200 mg of inguinal white adipose tissue) to extract soluble substances. The acetonitrile fraction is collected, then dried, and the residue is dissolved in 1 ml of DMSO for 300 mg of white adipose tissue.
# Compounds tested: the same as those of Example 2.
# [7] = 1 h, read-out: Plasma 1 h % inh.
# [8] = 4 h, read-out: Plasma 4 h % inh.
# T1 sequence (P28845 whole entry): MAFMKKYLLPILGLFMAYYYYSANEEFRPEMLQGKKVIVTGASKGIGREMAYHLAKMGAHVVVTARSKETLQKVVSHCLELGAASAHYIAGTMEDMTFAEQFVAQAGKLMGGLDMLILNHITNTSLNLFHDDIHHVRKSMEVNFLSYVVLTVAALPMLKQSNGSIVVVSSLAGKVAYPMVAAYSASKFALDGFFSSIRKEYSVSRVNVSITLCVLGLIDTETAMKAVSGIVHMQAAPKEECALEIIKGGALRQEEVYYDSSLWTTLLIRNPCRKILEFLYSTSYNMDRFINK
compound,measurement,setting,value
"CN1C(C(=O)c2ccc3ccccc3c2)=C([O-])c2ccccc2S1(=O)=O.[K+] [Compound 1K, potassium 3-(2-naphthoyl)-2-methyl-2H-benzo[e][1,2]thiazin-4-olate 1,1-dioxide]",increase of plasma exposure versus Compound 1,[1],~8 fold
same,Plasma 1 h,"[2]; 10 mg/kg oral, 1 h",13900 ± 2117 ng/mL
same,concentration at 1 h,"[2]; male, C57BL/6N, mouse, plasma, po, 2.5 mg/kg, 2.5 mg/kg oral, 1 h",4.24 ± 1.26 µg/mL
same,concentration at 4 h,"[2]; male, C57BL/6N, mouse, plasma, po, 2.5 mg/kg, 2.5 mg/kg oral",3.47 ± 2.43 µg/mL
same,concentration at 4 h,"[2]; male, C57BL/6N, mouse, plasma, po, 10 mg/kg, 10 mg/kg oral",6.81 ± 0.674 µg/mL
same,inhibition of plasma prednisolone/prednisone ratio of AUC (30 minutes to 4 hours),"11β-HSD type 1; 20 mg/kg, prednisone 10 mg/kg 2 h later",81%
same,inhibition of conversion of prednisone to prednisolone (prednisolone/prednisone AUC ratio),11β-HSD type 1; 40 mg/kg,79%
same,inhibition of conversion of prednisone to prednisolone (prednisolone/prednisone AUC ratio),11β-HSD type 1; 80 mg/kg,89%
same,"""maximum"" inhibition of plasma prednisolone/prednisone ratio of AUC (30 minutes to 4 hours)","11β-HSD type 1; all the doses tested (20, 40 and 80 mg/kg), 5 animals per group",at least 80%
same,% inhibition at 1 h,"human 11β-HSD type 1 [3]; mouse plasma (2% final volume), 1 h after 0.63 mg/kg oral",47%
same,% inhibition at 1 h,"human 11β-HSD type 1 [3]; mouse plasma, 1 h after 2.5 mg/kg oral",78%
same,% inhibition at 1 h,"human 11β-HSD type 1 [3]; mouse plasma, 1 h after 10 mg/kg oral",91%
same,% inhibition at 4 h,"human 11β-HSD type 1 [3]; mouse plasma, 4 h after 0.63 mg/kg oral",36%
same,% inhibition at 4 h,"human 11β-HSD type 1 [3]; mouse plasma, 4 h after 2.5 mg/kg oral",67%
same,% inhibition at 4 h,"human 11β-HSD type 1 [3]; mouse plasma, 4 h after 10 mg/kg oral",86%
same,inhibition at 2.5 mg/kg,human 11β-HSD type 1 [3]; [7],75 ± 4%
same,inhibition at 2.5 mg/kg,human 11β-HSD type 1 [3]; [8],63 ± 6%
same,inhibition at 10 mg/kg,human 11β-HSD type 1 [3]; [7],89 ± 1%
same,inhibition at 10 mg/kg,human 11β-HSD type 1 [3]; [8],85 ± 2%
same,concentration at 4 h,"[4]; liver, read-out: mean hepatic levels (in relative value)",13600 ± 3700 ng/g
same,concentration at 4 h,"[4]; inguinal adipose tissue, read-out: tissue levels (in relative value), inguinal adipose tissue",6100 ± 1500 ng/g
same,concentration at 4 h,"[4]; mesenteric adipose tissue, read-out: tissue levels (in relative value), mesenteric adipose tissue",6600 ± 400 ng/g
same,concentration at 4 h,"[4]; plasma, ± SEM, n=3, read-out: mean plasma levels",17 ± 3.58 µg/mL
same,concentration at 4 h,"[4]; subcutaneous adipose tissue, read-out: tissue levels (in relative value), subcutaneous adipose tissue",1300 ± 100 ng/g
same,inhibition of ex vivo activity of 11β-HSD type 1 of peripheral and visceral adipose tissue,[5],complete inhibition
same,% inhibition after 4 h,human 11β-HSD type 1 [6]; 4 h after 0.63 mg/kg oral,21%
same,% inhibition after 4 h,human 11β-HSD type 1 [6]; 4 h after 2.5 mg/kg oral,41%
same,% inhibition after 4 h,human 11β-HSD type 1 [6]; 4 h after 10 mg/kg oral,70%
